Experimental data as given in the NIST ThermoML archive (doi:10.1021/je2013704).

Test: mn = molality of the nth substance listed, in mol/kg
Settings: Liquid, Vibrating tube method

[I-].[K+] [potassium iodide] + O
mass density [kg/m3]
Settings | 1050 kPa | 10020 kPa | 19970 kPa | 29900 kPa | 39830 kPa | 49760 kPa | 59680 kPa | 68120 kPa
283.15 K, m1 = 0.669 | 1078.98 | 1083.16 | 1087.75 | 1092.18 | 1096.51 | 1100.74 | 1104.92 | 1108.52
283.15 K, m1 = 1.063 | 1122.95 | 1127.11 | 1131.7 | 1136.2 | 1140.54 | 1144.78 | 1149.02 | 1152.59
298.12 K, m1 = 0.669 | 1074.75 | 1078.81 | 1083.04 | 1087.37 | 1091.56 | 1095.69 | 1099.67 | 1103
298.12 K, m1 = 0.9 | 1100.27 | 1104.27 | 1108.67 | 1112.93 | 1117.15 | 1121.3 | 1125.31 | 1128.62
298.12 K, m1 = 1.063 | 1117.9 | 1121.98 | 1126.32 | 1130.67 | 1134.96 | 1139.11 | 1143.14 | 1146.49
323.07 K, m1 = 0.669 | 1064.04 | 1067.95 | 1072.19 | 1076.42 | 1080.45 | 1084.42 | 1088.3 | 1091.53
323.07 K, m1 = 0.9 | 1088.99 | 1092.94 | 1097.21 | 1101.41 | 1105.46 | 1109.41 | 1113.37 | 1116.58
323.07 K, m1 = 1.063 | 1106.19 | 1110.17 | 1114.52 | 1118.76 | 1122.89 | 1126.88 | 1130.86 | 1134.11
348.04 K, m1 = 0.669 | 1049.72 | 1053.73 | 1057.99 | 1062.23 | 1066.38 | 1070.32 | 1074.35 | 1077.66
348.04 K, m1 = 0.9 | 1074.24 | 1078.29 | 1082.62 | 1086.89 | 1091.06 | 1095.03 | 1099.04 | 1102.03
348.04 K, m1 = 1.063 | 1091.2 | 1095.23 | 1099.65 | 1103.95 | 1108.16 | 1112.21 | 1116.3 | 1119.62
372.99 K, m1 = 0.669 | 1032.6 | 1036.79 | 1041.3 | 1045.73 | – | – | – | –
372.99 K, m1 = 0.9 | 1056.8 | 1061.02 | 1065.55 | 1070.01 | – | – | – | –
372.99 K, m1 = 1.063 | 1073.46 | 1077.72 | 1082.29 | – | – | – | – | –
